# Laboratory results reported in US5338845A, “Aspergillus species, cyclic dimeric dipeptide derivative substance P antagonist biosynthetic products thereof, and process for preparation thereof” (Sterling Winthrop Inc., priority 1992, dated 1994).
# What was measured:
# [1] = biological target: T1, NK2 receptor (Rattus norvegicus, UniProt P16610); experiment: Eledoisin-induced contractility in rat vas deferens model; assay type: cell-based; parameters: from tissue; host or cells: rat vas deferens (organ preparation); settings: functional antagonism at the NK2 receptor, read-out: IC50, inhibition of eledoisin-induced contractility
# T1 sequence (P16610 1-390): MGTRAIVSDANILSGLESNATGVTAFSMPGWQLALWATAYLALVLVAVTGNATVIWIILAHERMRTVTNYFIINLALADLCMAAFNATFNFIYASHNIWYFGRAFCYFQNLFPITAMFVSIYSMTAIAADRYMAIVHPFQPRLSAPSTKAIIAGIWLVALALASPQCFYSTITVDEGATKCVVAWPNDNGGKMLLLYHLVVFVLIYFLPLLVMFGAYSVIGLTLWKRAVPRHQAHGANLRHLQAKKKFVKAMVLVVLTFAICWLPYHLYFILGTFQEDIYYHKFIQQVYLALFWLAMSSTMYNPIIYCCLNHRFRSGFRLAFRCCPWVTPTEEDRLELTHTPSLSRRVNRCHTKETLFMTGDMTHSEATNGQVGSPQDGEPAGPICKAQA
# [2] = biological target: T2, NK1 (Cavia porcellus, UniProt P30547); experiment: NK1 functional assay: Substance P-induced contractility in the guinea pig ileum; assay type: cell-based; parameters: Substance P-induced contractility in the guinea pig ileum; from tissue; host or cells: guinea pig ileum (organ preparation)
# [3] = biological target: T3, NK3 (Cavia porcellus, UniProt P30098); experiment: NK3 selective ligand 3H-senktide binding, guinea pig forebrain membrane preparation; settings: read-out: IC50 against NK3 selective ligand 3H-senktide
# T3 construct: tested in a guinea pig forebrain membrane preparation; from tissue; host or cells: guinea pig forebrain membrane preparation
# T3 sequence (P30098 1-440): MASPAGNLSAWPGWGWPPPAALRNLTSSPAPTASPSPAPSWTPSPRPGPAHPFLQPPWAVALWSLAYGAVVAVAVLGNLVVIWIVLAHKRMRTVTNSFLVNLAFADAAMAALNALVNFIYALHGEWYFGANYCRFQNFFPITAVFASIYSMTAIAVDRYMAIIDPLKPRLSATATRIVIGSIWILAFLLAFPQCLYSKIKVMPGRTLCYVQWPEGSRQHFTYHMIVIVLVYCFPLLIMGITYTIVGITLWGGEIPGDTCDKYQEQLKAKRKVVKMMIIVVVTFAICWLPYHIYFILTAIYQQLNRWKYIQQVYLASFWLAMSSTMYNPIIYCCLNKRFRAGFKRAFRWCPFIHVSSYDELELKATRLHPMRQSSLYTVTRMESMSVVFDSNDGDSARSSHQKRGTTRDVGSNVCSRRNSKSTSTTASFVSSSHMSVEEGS
# [4] = biological target: T4, NK1 (Homo sapiens, UniProt P25103); experiment: NK1 functional assay: Substance P-induced 45Ca2+ efflux from human astrocytoma U373MG cells; assay type: cell-based; parameters: Human astrocytoma cells (U--373 MG, ATCC No. HTB 17) were cultured in 75-mL flasks; host or cells: U-373 MG human astrocytoma cells (intact monolayer); settings: read-out: IC50, inhibition of Substance P-induced 45Ca2+ efflux
# [5] = biological target: T2, NK1; experiment: Substance P NK1 receptor binding, tritiated Substance P, guinea pig submaxillary gland tissue; parameters: the resulting submaxillary gland tissue preparation (1.0 to 1.5 mL) was stored at -70° C; tissue Pel Freeze Biologicals; host or cells: guinea pig submaxillary gland homogenate; settings: tritiated Substance P 0.75 nM; Ki calculated from IC50 by Cheng-Prusoff; read-out: Ki Guinea Pig Submaxillary Gland Tissue (Substance P antagonist potency)
# Experimental: (§1) As stated above the compounds of Formula I are useful as Substance P antagonists and therefore as analgesic and/or antiinflammatory agents. Substance P antagonist NK1 receptor binding activity was determined using guinea pig submaxillary gland tissue and human astrocytoma cells.
# Submaxillary glands from both sexes of Hartley guinea pigs were obtained from Pel Freeze Biologicals, Rogers, Arkansas by overnight express in a plastic bag kept cold in wet ice. […] Using serum bovine albumin as the standard the protein yield was determined by the Bradford method (Bio-Rad, Richmond, Calif.) to be 7-8 mg/mL or about 250 mg from 50 submaxillary glands.
# To test for receptor binding a sample of the submaxillary gland tissue preparation was thawed on ice and rehomogenized with a glass homogenizer (Dounce). […] The residue on the filter was washed three times with tromethamine buffer (3 mL each time) and its radioactivity was measured in a liquid scintillation counter (Beckman LS5000) (x=number of counts per minute with test compound, y=number of counts per minute without test compound). […] The dissociation constant (Kd) for receptor binding was determined by varying the concentration of tritiated Substance P. The following calculations were made: […]
# [6] = biological target: T4, NK1; experiment: Substance P NK1 receptor binding, 125I-Bolton Hunter Substance P, human astrocytoma cells (U-373 MG); parameters: host or cells: U-373 MG human astrocytoma cells (intact monolayer); settings: for IC50: comparative test with ditryptophenaline, read-out: IC50, Substance P antagonist activity in human astrocytoma cells
# Experimental: as §1
# Human astrocytoma cells (U--373 MG, ATCC No. HTB 17) were cultured in 75-mL flasks in an aqueous medium containing horse serum (heat inactivated, 10%), minimum essential amino acids (2%), minimum essential vitamin solution (2%), and an aqueous solution of penicillin (10,000 units/mL) and streptomycin (10,000 μg/mL) (Penn-Strep, 2%), which was sterilized by filtration through a disposable filter (Nalgene, VWR Cat. No. 28199-585). The medium was replaced twice weekly. Cells were passaged (1:4 split) by removing the medium and adding aqueous trypsin (0.25%, 8 mL/flask). The flasks were swirled for 30 seconds, the aqueous trypsin was removed, and the cells were incubated for 5 minutes at room temperature, then washed twice with fresh medium (7 mL each time). Poly-D-lysine solution (50 μg/mL in aqueous phosphate saline buffer, 0.25 mL) was added to each well of a sterile 96-well […] plate (Corning), which was then incubated at room temperature for 40 minutes. The poly-D-lysine solution was removed, each well was washed twice with aqueous phosphate saline buffer (0.25 mL), cells were added (0.2 mL/well), and the plate was incubated at 37° C. for two days in an oxygen-carbon dioxide (95:5) atmosphere to provide a monolayer of 1.4-1.9×10^4 cells per well.
# To test for receptor binding the aqueous phosphate saline buffer was removed from each well, the cell monolayer was washed three times with assay buffer (aqueous 2-[4-(2-hydroxyethyl)-1-piperazinyl]ethanesulfonic acid [HEPES], 25 mM; potassium chloride, 5.8 mM; monopotassium phosphate, 2.2 mM; sodium chloride, 115 mM; magnesium sulfate, 0.6 mM; calcium chloride, 1.8 mM; bovine serum albumin, 1%; glucose, 5 mM; thiorphan, 1 μM; and bacitracin, 40 μg/mL; pH adjusted to 7.40 with dilute hydrochloric acid; 0.25 mL each time). To each well was then added assay buffer alone (0.1 mL) or a mixture (0.1 mL) with assay buffer as diluent containing ^125 I-Bolton Hunter Substance P (Amersham, Inc., Arlington Heights, Ill.; 0.1 nanomole) and test compound in amount to give the desired concentration thereof or, to determine nonspecific binding, unlabelled Substance P (0.1 micromole) and the plate was incubated at 25° C. for 90 minutes. […] The radioactivity of part (100 μL) of the detachment mixture was measured in a gamma ray counter (Packard Cobra). Kd and IC50 values were determined and a Ki value was calculated for each test compound as described above.
# [7] = biological target: T1, NK2 receptor; experiment: 125I-neurokinin A binding to the NK2 receptor in rat duodenum membranes; parameters: from tissue; settings: read-out: Ki, inhibition of 125I-neurokinin A binding to the NK2 receptor
# [8] = biological target: T5, NK2 receptor (Homo sapiens, UniProt P21452); experiment: 125I-neurokinin A binding to the NK2 receptor in human urinary bladder membranes; settings: read-out: Ki, inhibition of 125I-neurokinin A binding to the NK2 receptor
# T5 construct: NK2 receptor in both rat duodenum and human urinary bladder membranes; from tissue; host or cells: human urinary bladder membranes
# T5 sequence (P21452 1-398): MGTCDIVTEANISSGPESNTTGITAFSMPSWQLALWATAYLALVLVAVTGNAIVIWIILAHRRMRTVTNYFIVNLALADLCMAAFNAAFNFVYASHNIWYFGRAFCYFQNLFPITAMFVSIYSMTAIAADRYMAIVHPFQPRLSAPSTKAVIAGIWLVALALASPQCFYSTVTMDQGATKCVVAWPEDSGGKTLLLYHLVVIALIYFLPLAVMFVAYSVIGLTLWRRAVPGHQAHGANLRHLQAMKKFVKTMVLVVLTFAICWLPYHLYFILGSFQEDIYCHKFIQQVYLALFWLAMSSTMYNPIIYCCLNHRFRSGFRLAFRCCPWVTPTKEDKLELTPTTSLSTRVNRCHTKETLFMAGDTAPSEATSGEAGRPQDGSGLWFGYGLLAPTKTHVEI
# [9] = quoted from Springer et al., Tetrahedron Letters 1977; cited from earlier work
# T4 sequence (P25103 whole entry): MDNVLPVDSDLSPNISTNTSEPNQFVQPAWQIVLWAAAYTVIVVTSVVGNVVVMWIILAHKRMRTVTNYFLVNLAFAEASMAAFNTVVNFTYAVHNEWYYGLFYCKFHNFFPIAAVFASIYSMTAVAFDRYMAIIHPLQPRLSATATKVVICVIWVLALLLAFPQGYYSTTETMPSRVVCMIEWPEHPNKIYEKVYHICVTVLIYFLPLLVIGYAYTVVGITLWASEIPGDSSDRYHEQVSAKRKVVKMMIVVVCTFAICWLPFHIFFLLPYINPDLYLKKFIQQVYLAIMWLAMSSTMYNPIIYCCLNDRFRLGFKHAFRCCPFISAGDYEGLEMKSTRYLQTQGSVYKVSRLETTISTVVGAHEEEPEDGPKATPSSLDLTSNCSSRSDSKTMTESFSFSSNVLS
# T2 sequence (P30547 whole entry): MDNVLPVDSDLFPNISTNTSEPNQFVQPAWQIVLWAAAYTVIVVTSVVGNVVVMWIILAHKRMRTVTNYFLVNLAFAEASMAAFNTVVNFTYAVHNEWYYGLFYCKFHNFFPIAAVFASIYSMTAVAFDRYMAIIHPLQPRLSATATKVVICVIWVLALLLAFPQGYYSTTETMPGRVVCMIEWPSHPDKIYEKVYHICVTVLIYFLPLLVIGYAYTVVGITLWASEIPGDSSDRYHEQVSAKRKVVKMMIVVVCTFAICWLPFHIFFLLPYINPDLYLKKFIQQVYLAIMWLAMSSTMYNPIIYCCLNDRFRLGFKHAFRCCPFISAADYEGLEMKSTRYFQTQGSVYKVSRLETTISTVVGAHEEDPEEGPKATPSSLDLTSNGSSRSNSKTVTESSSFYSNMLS
IC50 [1] [nM],"pA2, competitive inhibition of Substance P-induced contractility [2]",IC50 [3] [nM],IC50 [4] [nM],Ki [5] [nM],"Ki ([6]; U-373 MG cells, 125I-Bolton Hunter Substance P, Ki calculated from IC50, read-out: Ki Human Astrocytoma Cells (Substance P antagonist potency)) [nM]",Potency relative to ditryptophenaline ([6]; ratio of IC50 values in human astrocytoma cells),Ki [7] [nM],Ki [8] [nM],SMILES,IC50 [6] [nM],LD50 [9] [mg/kg]
3400 ± 1300,6.6±0.31,15200,600 ± 300,950 to 2400,240,fortyfold,260,720,O=C1N[C@@H](Cc2ccccc2)C(=O)N2[C@H]3Nc4ccccc4C3([C@]34C[C@H]5C(=O)N[C@@H](Cc6ccccc6)C(=O)N5[C@H]3Nc3ccccc34)C[C@@H]12 (stereo partly drawn) [Compound I-1],300,
,,,,,,,,,"CN1C(=O)[C@@H]2C[C@@]3([C@@]45C[C@H]6C(=O)N(C)[C@@H](Cc7ccccc7)C(=O)N6[C@@H]4Nc4ccccc45)c4ccccc4N[C@H]3N2C(=O)[C@@H]1Cc1ccccc1 [ditryptophenaline, reference compound]",12000,> 200
